Source: ChEMBL document CHEMBL1201862, “PubChem BioAssay data set” (2004)
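The compound was tested at five concentrations on cells cultured in 96-well plates, with a 48-hour exposure period. GI50: concentration for 50% inhibition of growth.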 Active and inactive are the calls of the source. Cut-off read from the data, not from the text of the source: active = GI50 up to about 1.1 µM and inactive = higher.

How the values were obtained:
Assay in all cases: NCI tumour cell line growth inhibition, 48 h
[1] = system: SW-620
[2] = system: ACHN
[3] = system: 786-0
[4] = system: HCT-116
[5] = system: CAKI-1
[6] = system: CCRF-CEM
[7] = system: A498
[8] = system: NCI-H23
[9] = system: OVCAR-5
[10] = system: MOLT-4
[11] = system: SN12C
[12] = system: LOX IMVI
[13] = system: SR
[14] = system: NCI-H460
[15] = system: U-251
[16] = system: EKVX
[17] = system: SNB-75

Measured: GI50

Cc1nc(C(N)=O)c(N)n1CCN1CCN(C(=O)CCCCCCCCCCNC2NC=Nc3[nH]cnc32)CC1 (configuration not stated)
inactive: [1] > 100 µM | [2] 29.4 µM | [3] > 100 µM | [4] 43.4 µM | [5] > 10 µM | [6] 13.8 µM | [7] > 100 µM | [8] 10.1 µM | [9] > 100 µM | [10] 11.6 µM | [11] 80.7 µM | [12] 33.1 µM | [13] 13.6 µM | [14] 32.7 µM | [15] > 100 µM

CC/C(CC(=O)CCC(=O)Nc1ccc(C)c(C)c1)=N\NC(=O)C(N)=O
inactive: [1] > 100 µM | [2] > 100 µM | [3] > 100 µM | [4] > 100 µM | [5] > 100 µM | [16] > 100 µM | [6] > 100 µM | [7] > 100 µM | [8] > 100 µM | [9] > 100 µM | [10] > 100 µM | [17] > 100 µM | [11] > 100 µM | [13] > 100 µM | [15] > 100 µM

COP(=O)(OC)/C(=N\Nc1ccc([N+](=O)[O-])cc1)NCc1ccccc1
inactive: [1] 35.6 µM | [2] 28 µM | [3] 34.3 µM | [4] 21 µM | [5] 38.6 µM | [6] 20.6 µM | [8] 18.9 µM | [9] 40.3 µM | [10] 25.8 µM | [17] 11.2 µM | [13] 20.3 µM | [14] 27.8 µM | [15] 23.4 µM

NN=C1/C(=C\c2ccccc2)CCC/C1=C/c1ccccc1
inactive: [1] 42.5 µM | [2] 27.4 µM | [3] 39.5 µM | [4] 30.8 µM | [16] 44.7 µM | [6] 20.1 µM | [7] 29.6 µM | [8] 36.9 µM | [9] 94 µM | [10] 17.9 µM | [17] 17.7 µM | [11] 27 µM | [12] 26.2 µM | [14] 32 µM | [15] 34.9 µM

Cc1ccc2nc3cc(C)c(=O)cc-3sc2c1
inactive: [1] > 100 µM | [2] 57.7 µM | [3] > 100 µM | [4] > 100 µM | [5] 39.7 µM | [16] > 100 µM | [6] 8.95 µM | [8] 57.7 µM | [9] > 100 µM | [10] 11.8 µM | [17] 18.7 µM | [11] > 100 µM | [13] 17 µM | [14] > 100 µM | [15] 75 µM

COc1ccc(/C=C2\CCCC(C(NO)c3ccc(OC)cc3)C2=NO)cc1 (configuration not stated)
inactive: [1] 44.3 µM | [2] 41.6 µM | [3] 29.2 µM | [4] 35.8 µM | [5] 49 µM | [16] 48.8 µM | [6] 33.9 µM | [7] 36.1 µM | [8] 38.6 µM | [10] 23.1 µM | [17] 26.3 µM | [11] 39.3 µM | [14] 59.8 µM | [15] 62.5 µM

CC(=O)/C=C\C1CC2C=CC1C2 (configuration not stated)
inactive: [1] 33.7 µM | [2] 79.3 µM | [3] 43.1 µM | [4] 15.2 µM | [16] 64.9 µM | [6] 16.3 µM | [8] 36.1 µM | [9] 53.3 µM | [10] 20.8 µM | [17] 21.6 µM | [11] 26.7 µM | [12] 14.1 µM | [14] 44.1 µM | [15] 45.4 µM

Cc1ccc(NC(=O)CC(=O)n2nc(-c3ccccc3)c(/N=N\c3ccccc3[N+](=O)[O-])c2-c2ccccc2)cc1
inactive: [1] > 100 µM | [2] 89.3 µM | [3] 28.4 µM | [4] 70.3 µM | [5] 69.7 µM | [16] > 100 µM | [6] > 100 µM | [8] > 100 µM | [9] > 100 µM | [10] > 100 µM | [17] 69.3 µM | [11] > 100 µM | [12] 93.5 µM | [13] > 100 µM | [14] 35.8 µM | [15] 52.5 µM

CS(=O)(=O)N(CCC#N)c1ccc(C=O)cc1
inactive: [1] > 100 µM | [2] > 100 µM | [3] > 100 µM | [4] > 100 µM | [5] > 100 µM | [16] > 100 µM | [7] > 100 µM | [9] > 100 µM | [10] 92.7 µM | [17] > 100 µM | [11] > 100 µM | [12] > 100 µM | [13] > 100 µM | [14] > 100 µM | [15] > 100 µM

CCc1nc2ccccc2c(=O)n1/N=C(\N=N\c1ccc(Cl)cc1)c1ccccc1
inactive: [1] 31.3 µM | [2] 31.8 µM | [3] 23.1 µM | [4] 17.3 µM | [5] 17 µM | [16] 26.1 µM | [6] 65.8 µM | [7] 26.7 µM | [8] > 100 µM | [9] > 100 µM | [10] 28.1 µM | [17] 14.6 µM | [11] 36 µM | [12] 16.9 µM | [14] 27.4 µM | [15] 26.9 µM

O=C(/C=C/c1c(O)ccc2ccccc12)c1ccc2ccccc2c1
inactive: [1] > 100 µM | [2] > 100 µM | [3] > 100 µM | [4] > 100 µM | [5] > 100 µM | [16] > 100 µM | [6] > 100 µM | [7] > 100 µM | [8] > 100 µM | [9] > 100 µM | [10] > 100 µM | [17] > 100 µM | [11] > 100 µM | [12] > 100 µM | [14] > 100 µM | [15] > 100 µM

CC1(O)CCn2c(=O)c3cc4ccccc4cc3c(=O)n2C1O (configuration not stated)
inactive: [1] > 100 µM | [2] > 100 µM | [3] > 100 µM | [4] > 100 µM | [5] > 100 µM | [16] > 100 µM | [6] > 100 µM | [8] > 100 µM | [9] > 100 µM | [10] > 100 µM | [11] > 100 µM | [12] > 100 µM | [13] > 100 µM | [14] > 100 µM | [15] > 100 µM

O=c1[nH]c(C2CCCCC2)nc2cc(Cl)ccc12
inactive: [1] > 100 µM | [2] > 100 µM | [3] 70 µM | [4] > 100 µM | [5] > 100 µM | [16] > 100 µM | [8] > 100 µM | [9] > 100 µM | [10] > 100 µM | [17] 55.6 µM | [11] > 100 µM | [13] > 100 µM | [15] > 100 µM
